{
  "source": "patent US8388671B2",
  "about": "“Methods for treatment of aneurysmal tissue” (Medtronic Vascular, Inc., priority 2004, dated 2013)",
  "origin": "cited, not measured here",
  "key": {"[1]": {"tested_on": "mice"}, "[2]": {"tested_on": "rabbits"}},
  "data": [
    {"substance": "hydroxy-polyethoxy-dodecane [Polidocanol]", "values": [
      {"measurement": "LD50 in mice", "setting": "[1]", "result": 1200, "unit": "mg/kg"},
      {"measurement": "LD50 in rabbits", "setting": "[2]", "result": 200, "unit": "mg/kg"},
      {"measurement": "LD50 relative to that of Novocain", "setting": "[2]; LD50 greater than that of Novocain", "result": "approximately 5 times"}
    ]}
  ]
}
